Consider 29 compounds from ChEMBL document CHEMBL5154804, “Species-Selective Targeting of Fungal Hsp90: Design, Synthesis, and Evaluation of Novel 4,5-Diarylisoxazole Derivatives for the Combination Treatment of Azole-Resistant Candidiasis” (J Med Chem, 2022).

Holding throughout (type): functional
Assay [1] concerns Candida albicans. Kind of assay: Synergistic antifungal activity against fluconazole-resistant Candida albicans 632 assessed as inhibition of fungal growth in presence of fluconazole by checker board microdilution assay.
Assay [2] deals with Candida albicans. Kind of assay: Synergistic antifungal activity against fluconazole-resistant Candida albicans 100 assessed as inhibition of fungal growth in presence of fluconazole by checker board microdilution assay. For orientation: Broth dilution looks for growth in wells or tubes with falling amounts of substance.
The subject of assay [3] is Candida albicans. Kind of assay: Synergistic antifungal activity against fluconazole-resistant Candida albicans 311 assessed as inhibition of fungal growth in presence of fluconazole by checker board microdilution assay.
Assay [4] deals with Candida albicans. In words: Synergistic antifungal activity against fluconazole-resistant Candida albicans 901 assessed as inhibition of fungal growth in presence of fluconazole by checker board microdilution assay.
Assay [5] concerns Candida albicans. In words: Synergistic antifungal activity against fluconazole-resistant Candida albicans 103 assessed as inhibition of fungal growth in presence of fluconazole by checker board microdilution assay.
The subject of assay [6] is Candida albicans. In words: Synergistic antifungal activity against fluconazole-resistant Candida albicans 904 assessed as inhibition of fungal growth in presence of fluconazole by checker board microdilution assay.

One may read the MIC80 as an inhibitory concentration at the 80% level, which refers to growth in some studies and to a panel of isolates in others. As to `CCNC(=O)c1noc(-c2cc(-c3ccc(-c4ccccc4)cc3)c(O)cc2O)c1-c1ccc(CN2CCOCC2)cc1`, the MIC80 in the assay with Candida albicans [1], in the assay on Candida albicans [2], with Candida albicans [3], with Candida albicans [4], in the assay with Candida albicans [5] and in the assay with Candida albicans [6] was above 64 µg/mL throughout.

As for `CCNC(=O)c1noc(-c2cc(-c3ccccc3F)c(O)cc2O)c1-c1ccc(CN2CCOCC2)cc1`, the MIC80 in the assay with Candida albicans [1], in the assay on Candida albicans [2], with Candida albicans [3], with Candida albicans [4], in the assay on Candida albicans [5] and with Candida albicans [6] was above 64 µg/mL in each case.

`CCNC(=O)c1noc(-c2cc(-c3ccc(C)cc3)c(O)cc2O)c1-c1ccc(CN2CCS(=O)(=O)CC2)cc1`: the MIC80 in the assay on Candida albicans [1] was above 64 µg/mL; in the assay on Candida albicans [2], above 64 µg/mL; in the assay on Candida albicans [3], 16 µg/mL; in the assay with Candida albicans [4], 64 µg/mL; in the assay with Candida albicans [5], above 64 µg/mL; in the assay on Candida albicans [6], 32 µg/mL.

For the compound `CCNC(=O)c1noc(-c2cc(-c3ccc(C)cc3)c(O)cc2O)c1-c1ccc(CN2CCSCC2)cc1`, the MIC80 was 0.5 µg/mL in the assay with Candida albicans [1]; 2 µg/mL in the assay on Candida albicans [2]; 2 µg/mL with Candida albicans [3]; 0.5 µg/mL in the assay on Candida albicans [4]; 1 µg/mL in the assay with Candida albicans [5]; 8 µg/mL with Candida albicans [6].

On to `CCCNC(=O)c1noc(-c2cc(-c3ccc(C)cc3)c(O)cc2O)c1-c1ccc(CN2CCOCC2)cc1`, for which the MIC80 turned out to be 32 µg/mL with Candida albicans [1]; 16 µg/mL in the assay on Candida albicans [2]; 64 µg/mL with Candida albicans [3]; 4 µg/mL in the assay with Candida albicans [4]; 32 µg/mL in the assay with Candida albicans [5]; 4 µg/mL with Candida albicans [6].

As to `CCNC(=O)c1noc(-c2cc(-c3cccc(C)c3)c(O)cc2O)c1-c1ccc(CN2CCOCC2)cc1`, the MIC80 stood at 0.25 µg/mL in the assay on Candida albicans [1]; 1 µg/mL with Candida albicans [2]; 0.5 µg/mL in the assay on Candida albicans [3]; 0.5 µg/mL with Candida albicans [4]; 1 µg/mL in the assay with Candida albicans [5]; 0.25 µg/mL with Candida albicans [6].

For the compound `CCCNC(=O)c1noc(-c2cc(-c3ccc(C)cc3)c(O)cc2O)c1-c1ccc(CN2CCCCC2)cc1`, the MIC80 in the assay on Candida albicans [1] is 4 µg/mL; in the assay on Candida albicans [2] it was 8 µg/mL; in the assay on Candida albicans [3] it was 8 µg/mL; in the assay with Candida albicans [4], 4 µg/mL; in the assay with Candida albicans [5], 4 µg/mL; in the assay on Candida albicans [6], 2 µg/mL.

For the compound `Cc1ccc(-c2cc(-c3onc(C(=O)NC(C)C)c3-c3ccc(CN4CCCCC4)cc3)c(O)cc2O)cc1`, the MIC80 in the assay on Candida albicans [1] came out at 2 µg/mL; in the assay with Candida albicans [2], 8 µg/mL; with Candida albicans [3], 8 µg/mL; with Candida albicans [4], 4 µg/mL; in the assay with Candida albicans [5], 4 µg/mL; in the assay on Candida albicans [6], 2 µg/mL.

Take `Cc1ccc(-c2cc(-c3onc(C(=O)NC4CCC4)c3-c3ccc(CN4CCOCC4)cc3)c(O)cc2O)cc1`: the MIC80 with Candida albicans [1] is 64 µg/mL; with Candida albicans [2], 16 µg/mL; in the assay on Candida albicans [3] it was above 64 µg/mL; in the assay with Candida albicans [4], 8 µg/mL; in the assay on Candida albicans [5], 32 µg/mL; in the assay with Candida albicans [6], 4 µg/mL.

On to `CCNC(=O)c1noc(-c2cc(-c3ccc(C)cc3)c(O)cc2O)c1-c1ccc(CN2CC(C)CC(C)C2)cc1` (centres undefined), for which the MIC80 with Candida albicans [1] came out at 2 µg/mL; in the assay with Candida albicans [2], 4 µg/mL; in the assay on Candida albicans [3] it was 2 µg/mL; with Candida albicans [4], 0.5 µg/mL; in the assay on Candida albicans [5], 16 µg/mL; in the assay on Candida albicans [6] it was 1 µg/mL.

For the compound `CCNC(=O)c1noc(-c2cc(-c3ccc(C)cc3)c(O)cc2O)c1-c1ccc(CN2CCNC(=O)C2)cc1`, the MIC80 in the assay on Candida albicans [1], with Candida albicans [2], with Candida albicans [3], with Candida albicans [4], in the assay on Candida albicans [5] and in the assay on Candida albicans [6] was above 64 µg/mL in each case.

Consider `CCNC(=O)c1noc(-c2cc(-c3ccc(C)cc3)c(O)cc2O)c1-c1ccc(CNC2CCCC2)cc1`, for which the MIC80 in the assay with Candida albicans [1], in the assay with Candida albicans [2], in the assay with Candida albicans [3], in the assay with Candida albicans [4], in the assay with Candida albicans [5] and in the assay on Candida albicans [6] was above 64 µg/mL in each case.

For `Cc1ccc(-c2cc(-c3onc(C(=O)NC4COC4)c3-c3ccc(CN4CCCCC4)cc3)c(O)cc2O)cc1`, the MIC80 in the assay with Candida albicans [1] was above 64 µg/mL; with Candida albicans [2], above 64 µg/mL; in the assay on Candida albicans [3] it was above 64 µg/mL; in the assay with Candida albicans [4], 32 µg/mL; with Candida albicans [5], above 64 µg/mL; in the assay with Candida albicans [6] it was above 64 µg/mL.

For the compound `CCNC(=O)c1noc(-c2cc(-c3ccc(CC)cc3)c(O)cc2O)c1-c1ccc(CN2CCOCC2)cc1`, the MIC80 came out at 2 µg/mL in the assay on Candida albicans [1]; 4 µg/mL in the assay on Candida albicans [2]; 1 µg/mL with Candida albicans [3]; 0.5 µg/mL with Candida albicans [4]; 2 µg/mL in the assay on Candida albicans [5]; 0.5 µg/mL in the assay on Candida albicans [6].

Regarding `CCNC(=O)c1noc(-c2cc(-c3ccc(C(C)(C)C)cc3)c(O)cc2O)c1-c1ccc(CN2CCOCC2)cc1`, the MIC80 in the assay with Candida albicans [1], in the assay with Candida albicans [2], in the assay with Candida albicans [3], in the assay on Candida albicans [4], in the assay on Candida albicans [5] and in the assay with Candida albicans [6] was above 64 µg/mL each time.

For the compound `CCNC(=O)c1noc(-c2cc(-c3cccc(C(F)(F)F)c3)c(O)cc2O)c1-c1ccc(CN2CCOCC2)cc1`, the MIC80 in the assay on Candida albicans [1], with Candida albicans [2], in the assay with Candida albicans [3], with Candida albicans [4], in the assay on Candida albicans [5] and with Candida albicans [6] was above 64 µg/mL throughout.

As for `CCNC(=O)c1noc(-c2cc(-c3ccc(C)cc3)c(O)cc2O)c1-c1ccc(CN2CCCC2)cc1`, the MIC80 was determined as 4 µg/mL in the assay with Candida albicans [1]; 2 µg/mL with Candida albicans [2]; 4 µg/mL in the assay on Candida albicans [3]; 1 µg/mL in the assay with Candida albicans [4]; 4 µg/mL with Candida albicans [5]; 2 µg/mL in the assay with Candida albicans [6].

Regarding `CCNC(=O)c1noc(-c2cc(-c3ccccc3C(C)C)c(O)cc2O)c1-c1ccc(CN2CCOCC2)cc1`, the MIC80 with Candida albicans [1], with Candida albicans [2], in the assay with Candida albicans [3], with Candida albicans [4], with Candida albicans [5] and in the assay with Candida albicans [6] was above 64 µg/mL throughout.

Consider `Cc1ccc(-c2cc(-c3onc(C(=O)NC4CCC4)c3-c3ccc(CN4CCCCC4)cc3)c(O)cc2O)cc1`, for which the MIC80 in the assay on Candida albicans [1] is 1 µg/mL; with Candida albicans [2] it was 2 µg/mL; in the assay with Candida albicans [3] it was 2 µg/mL; in the assay on Candida albicans [4], 4 µg/mL; in the assay on Candida albicans [5], 4 µg/mL; in the assay with Candida albicans [6], 2 µg/mL.

Turning to `Cc1ccc(-c2cc(-c3onc(C(=O)NC4CC4)c3-c3ccc(CN4CCOCC4)cc3)c(O)cc2O)cc1`, the MIC80 in the assay on Candida albicans [1] was 32 µg/mL; in the assay with Candida albicans [2] it was 4 µg/mL; in the assay on Candida albicans [3], above 64 µg/mL; with Candida albicans [4], 8 µg/mL; in the assay on Candida albicans [5], 16 µg/mL; in the assay with Candida albicans [6], 4 µg/mL.

As for `CCNC(=O)c1noc(-c2cc(-c3ccc(C(C)C)cc3)c(O)cc2O)c1-c1ccc(CN2CCOCC2)cc1`, the MIC80 in the assay with Candida albicans [1], in the assay with Candida albicans [2], in the assay on Candida albicans [3], with Candida albicans [4], in the assay with Candida albicans [5] and in the assay on Candida albicans [6] was above 64 µg/mL each time.

`CCNC(=O)c1noc(-c2cc(-c3ccc(OC(F)(F)F)cc3)c(O)cc2O)c1-c1ccc(CN2CCOCC2)cc1`: the MIC80 in the assay with Candida albicans [1], in the assay on Candida albicans [2], with Candida albicans [3], in the assay with Candida albicans [4], in the assay on Candida albicans [5] and in the assay with Candida albicans [6] was above 64 µg/mL in each case.

On to `CCNC(=O)c1noc(-c2cc(-c3cccc(F)c3)c(O)cc2O)c1-c1ccc(CN2CCOCC2)cc1`, for which the MIC80 in the assay with Candida albicans [1] turned out to be 2 µg/mL; in the assay on Candida albicans [2], 8 µg/mL; in the assay with Candida albicans [3] it was 4 µg/mL; in the assay on Candida albicans [4] it was 2 µg/mL; in the assay with Candida albicans [5] it was 16 µg/mL; in the assay on Candida albicans [6], 1 µg/mL.

`CCNC(=O)c1noc(-c2cc(-c3ccccc3CC)c(O)cc2O)c1-c1ccc(CN2CCOCC2)cc1`: the MIC80 with Candida albicans [1], with Candida albicans [2], in the assay with Candida albicans [3], in the assay on Candida albicans [4], with Candida albicans [5] and in the assay with Candida albicans [6] was above 64 µg/mL in each case.

For `CCNC(=O)c1noc(-c2cc(-c3ccc(C(F)(F)F)cc3)c(O)cc2O)c1-c1ccc(CN2CCOCC2)cc1`, the MIC80 with Candida albicans [1], in the assay on Candida albicans [2], in the assay with Candida albicans [3], in the assay with Candida albicans [4], in the assay with Candida albicans [5] and in the assay with Candida albicans [6] was above 64 µg/mL in each case.

Take `Cc1ccc(-c2cc(-c3onc(C(=O)N4CCC4)c3-c3ccc(CN4CCOCC4)cc3)c(O)cc2O)cc1`: the MIC80 is above 64 µg/mL in the assay on Candida albicans [1]; 8 µg/mL in the assay with Candida albicans [2]; above 64 µg/mL in the assay with Candida albicans [3]; 16 µg/mL in the assay with Candida albicans [4]; above 64 µg/mL in the assay with Candida albicans [5]; 16 µg/mL with Candida albicans [6].

With `CCNC(=O)c1noc(-c2cc(-c3ccc(C)cc3)c(O)cc2O)c1-c1ccc(CN2CCC(N3CCOCC3)CC2)cc1`, the MIC80 in the assay on Candida albicans [1], in the assay on Candida albicans [2], in the assay on Candida albicans [3], with Candida albicans [4], with Candida albicans [5] and in the assay with Candida albicans [6] was above 64 µg/mL each time.

On to `CCNC(=O)c1noc(-c2cc(-c3ccc(F)cc3)c(O)cc2O)c1-c1ccc(CN2CCOCC2)cc1`, for which the MIC80 was found to be 4 µg/mL with Candida albicans [1]; 16 µg/mL in the assay with Candida albicans [2]; 16 µg/mL in the assay on Candida albicans [3]; 2 µg/mL in the assay with Candida albicans [4]; 16 µg/mL in the assay on Candida albicans [5]; 1 µg/mL in the assay on Candida albicans [6].

For the compound `Cc1ccc(-c2cc(-c3onc(C(=O)N(C)C)c3-c3ccc(CN4CCCCC4)cc3)c(O)cc2O)cc1`, the MIC80 in the assay with Candida albicans [1] amounted to 8 µg/mL; in the assay on Candida albicans [2] it was 8 µg/mL; in the assay on Candida albicans [3], 16 µg/mL; with Candida albicans [4], 16 µg/mL; with Candida albicans [5], 16 µg/mL; in the assay on Candida albicans [6] it was 8 µg/mL.
